Measured values published in PubChem BioAssay (NCI).
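Exposure lasted 48 hours, with cells grown in 96-well plates and compounds tested at five concentrations. TGI: concentration producing complete growth inhibition.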

Legend:
Experiment in all cases: growth of human tumour cells (NCI), 48 h
XF 498 CNS = test system: XF 498 CNS
NCI-H460 lung = test system: NCI-H460 lung
SNB-75 CNS = test system: SNB-75 CNS
NCI-H522 lung = test system: NCI-H522 lung
SF-268 CNS = test system: SF-268 CNS
SNB-19 CNS = test system: SNB-19 CNS
UACC-62 melanoma = test system: UACC-62 melanoma
UO-31 renal = test system: UO-31 renal
DMS 273 small cell lung = test system: DMS 273 small cell lung
DLD-1 colon = test system: DLD-1 colon
EKVX NSCLC = test system: EKVX NSCLC
NCI-H226 lung = test system: NCI-H226 lung
RPMI-8226 leukemia = test system: RPMI-8226 leukemia
UACC-257 melanoma = test system: UACC-257 melanoma
SK-MEL-2 melanoma = test system: SK-MEL-2 melanoma
IGROV1 ovarian = test system: IGROV1 ovarian
KM12 colon = test system: KM12 colon
ACHN renal = test system: ACHN renal
A549 NSCLC = test system: A549 NSCLC
SR leukemia = test system: SR leukemia
MOLT-4 leukemia = test system: MOLT-4 leukemia
LXFL 529 NSCLC = test system: LXFL 529 NSCLC
SK-OV-3 ovarian = test system: SK-OV-3 ovarian
MALME-3M melanoma = test system: MALME-3M melanoma
RXF-631 renal = test system: RXF-631 renal
SF-539 CNS = test system: SF-539 CNS
SNB-78 CNS = test system: SNB-78 CNS
HOP-92 NSCLC = test system: HOP-92 NSCLC
M19-MEL melanoma = test system: M19-MEL melanoma
SN12C renal = test system: SN12C renal
HCC-2998 colon = test system: HCC-2998 colon
SW-620 colon = test system: SW-620 colon
COLO 205 colon = test system: COLO 205 colon
HOP-62 NSCLC = test system: HOP-62 NSCLC
OVCAR-4 ovarian = test system: OVCAR-4 ovarian
OVCAR-8 ovarian = test system: OVCAR-8 ovarian
U251 CNS = test system: U251 CNS
K-562 leukemia = test system: K-562 leukemia
OVCAR-5 ovarian = test system: OVCAR-5 ovarian
M14 melanoma = test system: M14 melanoma
CCRF-CEM leukemia = test system: CCRF-CEM leukemia
KM20L2 colon = test system: KM20L2 colon
CAKI-1 renal = test system: CAKI-1 renal
786-0 renal = test system: 786-0 renal
DMS 114 small cell lung = test system: DMS 114 small cell lung
OVCAR-3 ovarian = test system: OVCAR-3 ovarian
HCT-116 colon = test system: HCT-116 colon
HT29 colon = test system: HT29 colon
A498 renal = test system: A498 renal
SK-MEL-28 melanoma = test system: SK-MEL-28 melanoma
NCI-H23 lung = test system: NCI-H23 lung
SF-295 CNS = test system: SF-295 CNS
RXF 393 renal = test system: RXF 393 renal
HL-60(TB) leukemia = test system: HL-60(TB) leukemia
TK-10 renal = test system: TK-10 renal

COc1ccc(/C=C/c2cc(OC)c(OCc3ccccc3)c(OC)c2)cc1
TGI (XF 498 CNS): > 100 µM | TGI (NCI-H460 lung): > 100 µM | TGI (SNB-75 CNS): > 100 µM | TGI (NCI-H522 lung): > 100 µM | TGI (SF-268 CNS): > 100 µM | TGI (SNB-19 CNS): > 100 µM | TGI (UACC-62 melanoma): > 100 µM | TGI (UO-31 renal): > 100 µM | TGI (DMS 273 small cell lung): > 100 µM | TGI (DLD-1 colon): > 100 µM | TGI (EKVX NSCLC): > 100 µM | TGI (NCI-H226 lung): > 100 µM | TGI (RPMI-8226 leukemia): > 100 µM | TGI (UACC-257 melanoma): > 100 µM | TGI (SK-MEL-2 melanoma): > 100 µM | TGI (IGROV1 ovarian): > 100 µM | TGI (KM12 colon): > 100 µM | TGI (ACHN renal): > 100 µM | TGI (A549 NSCLC): > 100 µM | TGI (SR leukemia): > 100 µM | TGI (MOLT-4 leukemia): > 100 µM | TGI (LXFL 529 NSCLC): > 100 µM | TGI (SK-OV-3 ovarian): > 100 µM | TGI (MALME-3M melanoma): > 100 µM | TGI (RXF-631 renal): > 100 µM | TGI (SF-539 CNS): > 100 µM | TGI (SNB-78 CNS): > 100 µM | TGI (HOP-92 NSCLC): > 100 µM | TGI (M19-MEL melanoma): > 100 µM | TGI (SN12C renal): > 100 µM | TGI (HCC-2998 colon): > 100 µM | TGI (SW-620 colon): > 100 µM | TGI (COLO 205 colon): > 100 µM | TGI (HOP-62 NSCLC): > 100 µM | TGI (OVCAR-4 ovarian): > 100 µM | TGI (OVCAR-8 ovarian): > 100 µM | TGI (U251 CNS): > 100 µM | TGI (K-562 leukemia): > 100 µM | TGI (OVCAR-5 ovarian): 94.5 µM | TGI (M14 melanoma): > 100 µM | TGI (CCRF-CEM leukemia): > 100 µM | TGI (KM20L2 colon): > 100 µM | TGI (CAKI-1 renal): > 100 µM | TGI (786-0 renal): > 100 µM | TGI (DMS 114 small cell lung): > 100 µM | TGI (OVCAR-3 ovarian): > 100 µM | TGI (HCT-116 colon): > 100 µM | TGI (HT29 colon): > 100 µM | TGI (A498 renal): > 100 µM | TGI (SK-MEL-28 melanoma): > 100 µM | TGI (NCI-H23 lung): > 100 µM

C[C@H]1C(=O)c2c(cc(O)c(C3OC(CO)C(O)C(O)C3O)c2O)OC1c1ccc(O)c(O)c1 (stereo partly specified)
TGI (NCI-H460 lung): > 100 µM | TGI (NCI-H522 lung): > 100 µM | TGI (SNB-19 CNS): > 100 µM | TGI (UACC-62 melanoma): > 100 µM | TGI (UO-31 renal): > 100 µM | TGI (SF-295 CNS): > 100 µM | TGI (EKVX NSCLC): > 100 µM | TGI (NCI-H226 lung): 98.9 µM | TGI (UACC-257 melanoma): > 100 µM | TGI (IGROV1 ovarian): > 100 µM | TGI (KM12 colon): > 100 µM | TGI (ACHN renal): > 100 µM | TGI (A549 NSCLC): > 100 µM | TGI (SR leukemia): > 100 µM | TGI (MOLT-4 leukemia): > 100 µM | TGI (SK-OV-3 ovarian): > 100 µM | TGI (RXF-631 renal): > 100 µM | TGI (SNB-78 CNS): > 100 µM | TGI (HOP-92 NSCLC): > 100 µM | TGI (M19-MEL melanoma): > 100 µM | TGI (HOP-62 NSCLC): > 100 µM | TGI (OVCAR-8 ovarian): > 100 µM | TGI (U251 CNS): > 100 µM | TGI (RXF 393 renal): > 100 µM | TGI (OVCAR-5 ovarian): > 100 µM | TGI (M14 melanoma): > 100 µM | TGI (HL-60(TB) leukemia): > 100 µM | TGI (CCRF-CEM leukemia): > 100 µM | TGI (DMS 114 small cell lung): > 100 µM | TGI (HCT-116 colon): > 100 µM | TGI (HT29 colon): > 100 µM | TGI (TK-10 renal): > 100 µM | TGI (A498 renal): > 100 µM | TGI (SK-MEL-28 melanoma): > 100 µM | TGI (NCI-H23 lung): > 100 µM
